Data on 5 molecules can be found in paper PMC9616876, “Structures of the CcmABCD heme release complex at multiple states” (Nature Communications, 2022).

The target in data set [1] is T1, CcmABCD (ATP-binding site in CcmA) (Escherichia coli, UniProt P33931).
T1 construct: full-length CcmA2B2C1D1, N-terminal His6 on CcmA; CcmABCDE operon co-expressed in E. coli BL21(DE3), CcmE not observed in purified complex; DDM-solubilised membranes; with Heme exporter protein B; Heme exporter protein C; Heme exporter protein D
Description: cryo-EM structure.

Data set [2] concerns the molecule itself. Description: cryo-EM structure; CcmABCD purified in DDM (20 mM Tris-HCl pH 7.5, 50 mM NaCl, 0.03% DDM), ~12 mg/ml; apo, with 3.5 mM MgCl2 and AMP-PNP, or with 3.5 mM MgCl2, ATP, heme b and 1 mM DTT; closed, semi-open and open NBD states.

On to `Nc1ncnc2c1ncn2[C@@H]1O[C@H](COP(=O)(O)OP(=O)(O)NP(=O)(O)O)[C@@H](O)[C@H]1O` [AMP-PNP], for which the cryo-EM structure result in data set [1] (3.5 mM AMP-PNP, 3.5 mM MgCl2, two AMP-PNP, closed NBD state) is given as “CcmABCD bound with AMP-PNP in closed NBD state”.
For `Nc1ncnc2c1ncn2[C@@H]1O[C@H](COP(=O)(O)OP(=O)(O)OP(=O)(O)O)[C@@H](O)[C@H]1O` [ATP], the cryo-EM structure entry in data set [1] (3.5 mM ATP, 3.5 mM MgCl2, 3.5 mM heme b, 1 mM DTT, two ATP in closed NBD state (7F04), one ATP in semi-open NBD state (7VFP), ATPase activity also measured) was “CcmABCD bound with heme b and double ATPs in closed NBD state”.
On to `O=P(O)(O)O` [inorganic phosphate], for which the cryo-EM structure entry in data set [1] (no nucleotide added, one phosphate per CcmA, closed NBD state, membranes purified in potassium phosphate buffer) is “each CcmA binds one inorganic phosphate”.

B1: CcmB (natural protein, E. coli BL21 (DE3))
chain: MMFWRIFRLELRVAFRHSAEIANPLWFFLIVITLFPLSIGPEPQLLARIAPGIIWVAALLSSLLALERLFRDDLQDGSLEQLMLLPLPLPAVVLAKVMAHWMVTGLPLLILSPLVAMLLGMDVYGWQVMALTLLLGTPTLGFLGAPGVALTVGLKRGGVLLSILVLPLTIPLLIFATAAMDAASMHLPVDGYLAILGALLAGTATLSPFATAAALRISIQ
notes: CcmB, integral membrane protein with six transmembrane helices, gene amplified from the E. coli BL21 (DE3) genome; also called CcmB1; CcmB2
For B1, in data set [2], the “stoichiometry N” value came to 2.

B2: CcmA (natural protein, E. coli BL21 (DE3))
chain: MGMLEARELLCERDERTLFSGLSFTLNAGEWVQITGSNGAGKTTLLRLLTGLSRPDAGEVLWQGQPLHQVRDSYHQNLLWIGHQPGIKTRLTALENLHFYHRDGDTAQCLEALAQAGLAGFEDIPVNQLSAGQQRRVALARLWLTRATLWILDEPFTAIDVNGVDRLTQRMAQHTEQGGIVILTTHQPLNVAESKIRRISLTQTRAA
notes: The whole CcmABCDE gene stretch was amplified by PCR from the genome; also called hexahistidine-tagged CcmA; NBD; not shown: His6, N-terminal, kept
For the molecule B2, the “stoichiometry N” value in data set [2] came out at 2.
